Test results published in patent US12036189B2, “Method of treating major depressive disorder” (priority 2018, dated 2024).

How the values were obtained:
[1] = test system: human peripheral blood lymphocytes (HPBL)
Procedure: The clastogenic potential of esketamine was evaluated in the in vitro mammalian chromosome aberration test using human peripheral blood lymphocytes (HPBL) in both the absence and presence of an induced metabolic activation system (the 9000 g supernatant [S9] microsomal fraction of liver homogenate from rats exposed to Aroclor-1254).
The study was conducted in 2 phases, with a preliminary toxicity test used to determine the appropriate concentrations for the definitive chromosomal aberration assay. Water was used as a negative (vehicle) control. Toxicity (defined as ≥45% reduction in MI relative to the vehicle control) was evaluated at 9 concentrations, ranging from 0.0238 to 238 μg/ml, after exposure of HPBL to esketamine for 20 hours in the absence of S9 activation, or for 4 hours, either in the presence or absence of S9 activation, followed by a 16-hour recovery period.
The definitive chromosome aberration assay evaluated HPBL cells after exposure to esketamine for 20 hours in the absence of S9 activation, or for 4 hours, either in the presence of absence of S9 activation, followed by a 16-hour recovery. Positive controls for chromosomal aberrations in non-activated and S9-activated evaluations, respectively, consisted of mitomycin C (MMC, 0.6 and 0.3 μg/mL for the 4- and 20-hour exposures, respectively) and cyclophosphamide (CP, 2.5, 5, and 7.5 μg/mL). […] Initially, the doses selected for evaluation of chromosomal aberrations were 60, 120, and 238 μg/mL for the non-activated 4- and 20-hour treatment conditions; and 30, 60, and 200 μg/mL for the S9-activated 4-hour treatment condition.

[2] = test system: human peripheral blood lymphocytes (HPBL); remark: listed apart in the source
Procedure: The study was conducted in 2 phases, with a preliminary toxicity test used to determine the appropriate concentrations for the definitive chromosomal aberration assay. Water was used as a negative (vehicle) control. In both phases, the cells were treated for 3 and 21 hours in the absence of S9 mix and for 3 hours in the presence of S9 mix. The mitotic index was assessed for all cultures to determine cytotoxicity. Ten concentrations, ranging from 2.62 to 260.16 μg/mL, were evaluated in the preliminary toxicity test. […] S-Norketamine concentrations of 93.66, 156.10 or 260.16 μg/mL were selected for metaphase analysis.

[3] = test system: animal models of depression; details: cited from earlier work
[4] = Repeated dose 28 day study, toxicokinetics; details: male rats, Day 28
Procedure: The objective of the study was to assess the potential toxicity, neurobehavioral effects, and toxicokinetics (TK) of esketamine when administered orally, via gavage, to Sprague Dawley rats for 28 days and to evaluate recovery during a 14-day drug-free period. Fifty male and 50 female rats were randomized into 4 groups (15/sex/Groups 1 and 4; 10/sex/Groups 2 and 3). Esketamine was administered via oral gavage once daily for 28 consecutive days to males at 0 (vehicle control), 6, 10 or 30 mg/kg/day and females at 0 (vehicle control), 2, 10 or 20 mg/kg/day in a dose volume of 10 mL/kg. Animals were observed until euthanized and necropsied on Day 29 (10/sex/group) or 43 (5/sex from Groups 1 and 4). Toxicity was evaluated based on mortality, clinical observations, body weights, food consumption, ophthalmology, motor activity, functional observational battery, clinical pathology (clinical chemistry, hematology, coagulation and urinalysis), organ weights, anatomic (macroscopic or microscopic) pathology. Toxicokinetic animals (3/sex/Group 1; 6/sex/Groups 2, 3, and 4) were similarly dosed and bled on Day 1 and during Week 4 for toxicokinetic analysis.

[5] = Single dose, randomized, open-label crossover study, pharmacokinetics; details: esketamine hydrochloride, 15 subjects
Excerpt: A randomized, open-label 4-way crossover study in 16 healthy male and female subjects was held wherein said subjects were placed in a randomly assigned order and administered esketamine. Each subject was assigned to 1 of 4 treatment sequences according to a randomization code such that 4 subjects were assigned to each treatment sequence. There was a wash-out period of at least 7 days between dosing periods with dosing consisting of either oral or intravenous esketamine hydrochloride. The study consisted of an eligibility screening period of 28 days, 4 study periods involving administration of a single dose of esketamine hydrochloride followed by safety assessments with blood sampling for PK purposes up to 72 hours after study drug administration, discharge at 72 hours after study drug administration and a follow-up visit 7-14 days after the last PK blood sample was taken on Day 4.

liver of Crl:CD(SD) rats = assay: In vivo single cell gel electrophoresis (comet) assay, DNA strand breaks in the liver

In the case of `O=P1(N(CCCl)CCCl)NCCCO1` (stereo not shown) [CP, cyclophosphamide], the “structural aberrations, % of the cells” value ([1]; S9-activated system, positive control 2.5, 5 and 7.5 μg/mL) is reported as 10.7%.

With `N[C@]1(c2ccccc2Cl)CCCCC1=O` [S-norketamine] the “Toxicity (mitotic index)” value [2] was “not observed at any dose” and the “induction of structural and numerical chromosomal aberrations” value [2] was “negative”.

For `CN[C@@]1(c2ccccc2Cl)CCCCC1=O` [(R)-ketamine, (2R)-2-(2-Chlorophenyl)-2-(methylamino) cyclohexanone], the “psychotomimetic side effects and abuse liability” value [3] is listed as “without psychotomimetic side effects and abuse liability”.

For `CN[C@]1(c2ccccc2Cl)CCCCC1=O` [esketamine, (2S)-2-(2-Chlorophenyl)-2-(methylamino) cyclohexanone], the “Toxicity (≥45% reduction in MI relative to the vehicle control)” value [1] was “not observed at any dose”, the “doses at which cytotoxicity (≥45% reduction in mitotic index) was observed” value ([1]; human) was no less than 200 µg/mL and the t1/2 ([4]; 10 mg/kg oral gavage) was 0.6 h. The AUC0-t ([4]; 30 mg/kg oral gavage) was 575 ng·h/mL, the “AUC0-inf, Geometric mean” value ([5]; 0.3 mg/kg iv) was 257.14 ng·h/mL and the “AUC0-t, Geometric mean” value ([5]; 0.3 mg/kg iv) was 249.15 ng·h/mL. The “Cmax, Geometric mean” value ([5]; 0.3 mg/kg iv) was 94.50 ng/mL, the “t1/2, Geometric mean” value ([5]; 0.3 mg/kg iv) was 10.16 h and the “tmax, Median” value ([5]; 0.3 mg/kg iv) was 1.00 h. For the same compound, the “AUC0-inf, Geometric mean” value ([5]; 20 mg oral solution) was 25.82 ng·h/mL, the “AUC0-t, Geometric mean” value ([5]; 20 mg oral solution) was 23.44 ng·h/mL and the “Cmax, Geometric mean” value ([5]; 20 mg oral solution) was 16.48 ng/mL. The “t1/2, Geometric mean” value ([5]; 20 mg oral solution) was 2.91 h, the “tmax, Median” value ([5]; 20 mg oral solution) was 0.50 h and the “AUC0-inf, Geometric mean” value ([5]; 20 mg oral tablet) was 22.46 ng·h/mL. For the same compound, the “AUC0-t, Geometric mean” value ([5]; 20 mg oral tablet) was 20.05 ng·h/mL, the “tmax, Median” value ([5]; 20 mg oral tablet) was 0.75 h and the “t1/2, Geometric mean” value ([5]; 20 mg oral) was 2.84 h. The “AUC0-inf, Geometric mean” value ([5]; 100 mg oral tablet) was 180.84 ng·h/mL, the “AUC0-t, Geometric mean” value ([5]; 100 mg oral tablet) was 172.71 ng·h/mL and the “Cmax, Geometric mean” value ([5]; 100 mg oral tablet) was 65.34 ng/mL. For the same compound, the “tmax, Median” value ([5]; 100 mg oral tablet) was 0.75 h, the “t1/2, Geometric mean” value ([5]; 100 mg oral) was 7.66 h and the “median % TI in the liver vs vehicle control” value (liver of Crl:CD(SD) rats; female rats, 25 and 50 mg/kg/day oral gavage, three doses, p<0.001) was “Statistically significant increases”. The “DNA strand breaks in the liver (study conclusion)” value (liver of Crl:CD(SD) rats; male and female rats, oral gavage) was “evidence of causing an increase in DNA strand breaks”, the “median % tail intensity (TI) in the liver vs vehicle control” value (liver of Crl:CD(SD) rats; male rats, 75 mg/kg/day oral gavage, three doses, p<0.001) was “Statistically significant increases” and the “macroscopic examination after 3 doses” value (liver of Crl:CD(SD) rats; rat, in vivo) was “no test item related lesions”.
